According to patent publication US11535629B2, “Dioxoloisoquinolinone derivatives and use thereof” (HANMI PHARMACEUTICAL CO., LTD., priority 2020, dated 2022):
Where two headings read alike, the source gives them in different places.

Tested on: KARPAS-422 cells
Assay: Cell growth inhibition test (CTG method)
Format: cell-based
Conditions: KARPAS-422 (EZH2^Y641N mutant), culturing for 7 days, read-out: Cell growth inhibitory activity (GI50, nM) KARPAS-422 (EZH2^Y641N mutant)
Method: The cultured cell strain was prepared at 1.8×10^4 cells/400 μL and placed in a 48-well plate.

[1] = Homo sapiens, KARPAS-422, 168 h

GI50 | GI50 [1] | SMILES
100 to 1000 nM |  | Cc1cc(C)c(CN2CCc3c(Cl)c4c(c(C)c3C2=O)OC(C)(C23CCC(N(C)C)(CC2)CC3)O4)c(=O)[nH]1 (single isomer, unassigned) [Compound 3, 9-chloro-6-((4,6-dimethyl-2-oxo-1,2-dihydropyridin-3-yl)methyl)-2-(4-(dimethylamino)bicyclo[2.2.2]octan-1-yl)-2,4-dimethyl-7,8-dihydro-[1,3]dioxolo[4,5-g]isoquinolin-5(6H)-one]
> 1000 nM |  | COc1cc(C)[nH]c(=O)c1CN1CCc2c(Cl)c3c(c(C)c2C1=O)OC(C)(C12CCC(N(C)C)(CC1)CC2)O3 (single isomer, unassigned) [Compound 6, 9-chloro-2-(4-(dimethylamino)bicyclo[2.2.2]octan-1-yl)-6-((4-methoxy-6-methyl-2-oxo-1,2-dihydropyridin-3-yl)methyl)-2,4-dimethyl-7,8-dihydro[1,3]dioxolo[4,5-g]isoquinolin-5(6H)-one]
100 to 1000 nM |  | CSc1cc(C)[nH]c(=O)c1CN1CCc2c(Cl)c3c(c(C)c2C1=O)OC(C)(C12CCC(N(C)C)(CC1)CC2)O3 (single isomer, unassigned) [Compound 9, 9-chloro-2-(4-(dimethylamino)bicyclo[2.2.2]octan-1-yl)-2,4-dimethyl-6-((6-methyl-4-(methylthio)-2-oxo-1,2-dihydropyridin-3-yl)methyl)-7,8-dihydro[1,3]dioxolo[4,5-g]isoquinolin-5(6H)-one]
> 1000 nM |  | Cc1cc(C)c(CN2CCc3c(Br)c4c(c(C)c3C2=O)OC(C)(C23CCC(N(C)C)(CC2)CC3)O4)c(=O)[nH]1 (single isomer, unassigned) [Compound 12, 9-bromo-6-((4,6-dimethyl-2-oxo-1,2-dihydropyridin-3-yl)methyl)-2-(4-(dimethylamino)bicyclo[2.2.2]octan-1-yl)-2,4-dimethyl-7,8-dihydro-[1,3]dioxolo[4,5-g]isoquinolin-5(6H)-one]
 | 10 to 100 nM | Cc1cc(C)c(CN2CCc3c(Cl)c4c(c(C)c3C2=O)OC(C)(C23CCC(N(C)C)(CC2)CC3)O4)c(=O)[nH]1 (stereo not shown) [Compound 1, 9-chloro-6-((4,6-dimethyl-2-oxo-1,2-dihydropyridin-3-yl)methyl)-2-(4-(dimethylamino)bicyclo[2.2.2]octan-1-yl)-2,4-dimethyl-7,8-dihydro-[1,3]dioxolo[4,5-g]isoquinolin-5(6H)-one]
 | 4.1 to 55 nM | Cc1cc(C)c(CN2CCc3c(Br)c4c(c(C)c3C2=O)OC(C)(C23CCC(N(C)C)(CC2)CC3)O4)c(=O)[nH]1 (stereo not shown) [Compound 10, 9-bromo-6-((4,6-dimethyl-2-oxo-1,2-dihydropyridin-3-yl)methyl)-2-(4-(dimethylamino)bicyclo[2.2.2]octan-1-yl)-2,4-dimethyl-7,8-dihydro-[1,3]dioxolo[4,5-g]isoquinolin-5(6H)-one]
 | 30 nM | Cc1cc(C)c(CN2CCc3c(c(C)c4c(c3C3CC3)OC(C)(C35CCC(N(C)C)(CC3)CC5)O4)C2=O)c(=O)[nH]1 (stereo not shown) [Compound 13, 9-cyclopropyl-6-((4,6-dimethyl-2-oxo-1,2-dihydropyridin-3-yl)methyl)-2-(4-(dimethylamino)bicyclo[2.2.2]octan-1-yl)-2,4-dimethyl-7,8-dihydro-[1,3]dioxolo[4,5-g]isoquinolin-5(6H)-one]
 | 45 nM | Cc1cc(C)c(CN2CCc3cc4c(c(C)c3C2=O)OC(C)(C23CCC(N(C)C)(CC2)CC3)O4)c(=O)[nH]1 (stereo not shown) [Compound 14, 6-((4,6-dimethyl-2-oxo-1,2-dihydropyridin-3-yl)methyl)-2-(4-(dimethylamino)bicyclo[2.2.2]octan-1-yl)-2,4-dimethyl-7,8-dihydro-[1,3]dioxolo[4,5-g]isoquinolin-5(6H)-one]
 | 36 nM | Cc1cc(C)c(CN2CCc3c(c(C)c4c(c3C3CCCC3)OC(C)(C35CCC(N(C)C)(CC3)CC5)O4)C2=O)c(=O)[nH]1 (stereo not shown) [Compound 16, 9-cyclopentyl-6-((4,6-dimethyl-2-oxo-1,2-dihydropyridin-3-yl)methyl)-2-(4-(dimethylamino)bicyclo[2.2.2]octan-1-yl)-2,4-dimethyl-7,8-dihydro-[1,3]dioxolo[4,5-g]isoquinolin-5(6H)-one]
 | 27 nM | CCc1c2c(c(C)c3c1OC(C)(C14CCC(N(C)C)(CC1)CC4)O3)C(=O)N(Cc1c(C)cc(C)[nH]c1=O)CC2 (stereo not shown) [Compound 18, 6-((4,6-dimethyl-2-oxo-1,2-dihydropyridin-3-yl)methyl)-2-(4-(dimethylamino)bicyclo[2.2.2]octan-1-yl)-9-ethyl-2,4-dimethyl-7,8-dihydro-[1,3]dioxolo[4,5-g]isoquinolin-5(6H)-one]
 | 47 nM | Cc1cc(C)c(CN2CCc3c(c(C)c4c(c3C(C)C)OC(C)(C35CCC(N(C)C)(CC3)CC5)O4)C2=O)c(=O)[nH]1 (stereo not shown) [Compound 20, 6-((4,6-dimethyl-2-oxo-1,2-dihydropyridin-3-yl)methyl)-2-(4-(dimethylamino)bicyclo[2.2.2]octan-1-yl)-9-isopropyl-2,4-dimethyl-7,8-dihydro-[1,3]dioxolo[4,5-g]isoquinolin-5(6H)-one]
 | 18 nM | C#Cc1c2c(c(C)c3c1OC(C)(C14CCC(N(C)C)(CC1)CC4)O3)C(=O)N(Cc1c(C)cc(C)[nH]c1=O)CC2 (stereo not shown) [Compound 21, 6-((4,6-dimethyl-2-oxo-1,2-dihydropyridin-3-yl)methyl)-2-(4-(dimethylamino)bicyclo[2.2.2]octan-1-yl)-9-ethynyl-2,4-dimethyl-7,8-dihydro-[1,3]dioxolo[4,5-g]isoquinolin-5(6H)-one]
12 to 19 nM |  | Cc1cc(C)c(CN2CCc3c(C)c4c(c(C)c3C2=O)OC(C)(C23CCC(N(C)C)(CC2)CC3)O4)c(=O)[nH]1 (stereo not shown) [Compound 22, 6-((4,6-dimethyl-2-oxo-1,2-dihydropyridin-3-yl)methyl)-2-(4-(dimethylamino)bicyclo[2.2.2]octan-1-yl)-2,4,9-trimethyl-7,8-dihydro-[1,3]dioxolo[4,5-g]isoquinolin-5(6H)-one]
100 to 1000 nM |  | Cc1cc(C)c(CN2CCc3c(C)c4c(c(C)c3C2=O)OC(C)(C23CCC(N(C)C)(CC2)CC3)O4)c(=O)[nH]1 (stereo not shown) [Compound 24, 6-((4,6-dimethyl-2-oxo-1,2-dihydropyridin-3-yl)methyl)-2-(4-(dimethylamino)bicyclo[2.2.2]octan-1-yl)-2,4,9-trimethyl-7,8-dihydro-[1,3]dioxolo[4,5-g]isoquinolin-5(6H)-one]
 | 14 nM | COc1cc(C)[nH]c(=O)c1CN1CCc2c(C)c3c(c(C)c2C1=O)OC(C)(C12CCC(N(C)C)(CC1)CC2)O3 (stereo not shown) [Compound 25, 2-(4-(dimethylamino)bicyclo[2.2.2]octan-1-yl)-6-((4-methoxy-6-methyl-2-oxo-1,2-dihydropyridin-3-yl)methyl)-2,4,9-trimethyl-7,8-dihydro[1,3]dioxolo[4,5-g]isoquinolin-5(6H)-one]
 | 46 nM | CCCc1cc(C)[nH]c(=O)c1CN1CCc2c(C)c3c(c(C)c2C1=O)OC(C)(C12CCC(N(C)C)(CC1)CC2)O3 (stereo not shown) [Compound 26, 2-(4-(dimethylamino)bicyclo[2.2.2]octan-1-yl)-2,4,9-trimethyl-6-((6-methyl-2-oxo-4-propyl-1,2-dihydropyridin-3-yl)methyl)-7,8-dihydro[1,3]dioxolo[4,5-g]isoquinolin-5(6H)-one]
 | 9.8 nM | Cc1cc(C)c(CN2CCc3c(C)c4c(c(Cl)c3C2=O)OC(C)(C23CCC(N(C)C)(CC2)CC3)O4)c(=O)[nH]1 (stereo not shown) [Compound 27, 4-chloro-6-((4,6-dimethyl-2-oxo-1,2-dihydropyridin-3-yl)methyl)-2-(4-(dimethylamino)bicyclo[2.2.2]octan-1-yl)-2,9-dimethyl-7,8-dihydro-[1,3]dioxolo[4,5-g]isoquinolin-5(6H)-one]
 | 13 nM | Cc1cc(C)c(CN2CCc3c(Cl)c4c(c(Cl)c3C2=O)OC(C)(C23CCC(N(C)C)(CC2)CC3)O4)c(=O)[nH]1 (stereo not shown) [Compound 28, 4,9-dichloro-6-((4,6-dimethyl-2-oxo-1,2-dihydropyridin-3-yl)methyl)-2-(4-(dimethylamino)bicyclo[2.2.2]octan-1-yl)-2-methyl-7,8-dihydro-[1,3]dioxolo[4,5-g]isoquinolin-5(6H)-one]
 | 36 nM | Cc1cc(C)c(CN2CCc3c(Cl)c4c(c(C)c3C2=O)OC(C23CCC(N(C)C)(CC2)CC3)O4)c(=O)[nH]1 (stereo not shown) [Compound 29, 9-chloro-6-((4,6-dimethyl-2-oxo-1,2-dihydropyridin-3-yl)methyl)-2-(4-(dimethylamino)bicyclo[2.2.2]octan-1-yl)-4-methyl-7,8-dihydro-[1,3]dioxolo[4,5-g]isoquinolin-5(6H)-one]
 | > 1000 nM | Cc1cc(C)c(CN2CCc3c(c(C)c4c(c3-c3ccco3)O[C@@](C)([C@H]3CC[C@H](N(C)C)CC3)O4)C2=O)c(=O)[nH]1 [Compound 31, (S)-6-((4,6-dimethyl-2-oxo-1,2-dihydropyridin-3-yl)methyl)-2-(trans-4-(dimethylamino)cyclohexyl)-9-(furan-2-yl)-2,4-dimethyl-7,8-dihydro-[1,3]dioxolo[4,5-g]isoquinolin-5(6H)-one]
 | > 1000 nM | Cc1cc(C)c(CN2CCc3c(c(C)c4c(c3-c3cccs3)O[C@@](C)([C@H]3CC[C@H](N(C)C)CC3)O4)C2=O)c(=O)[nH]1 [Compound 33, (S)-6-((4,6-dimethyl-2-oxo-1,2-dihydropyridin-3-yl)methyl)-2-(trans-4-(dimethylamino)cyclohexyl)-2,4-dimethyl-9-(thiophen-2-yl)-7,8-dihydro-[1,3]dioxolo[4,5-g]isoquinolin-5(6H)-one]
 | > 1000 nM | Cc1cc(C)c(CN2CCc3c(c(C)c4c(c3-c3ccncc3)O[C@@](C)([C@H]3CC[C@H](N(C)C)CC3)O4)C2=O)c(=O)[nH]1 [Compound 35, (S)-6-((4,6-dimethyl-2-oxo-1,2-dihydropyridin-3-yl)methyl)-2-(trans-4-(dimethylamino)cyclohexyl)-2,4-dimethyl-9-(pyridin-4-yl)-7,8-dihydro-[1,3]dioxolo[4,5-g]isoquinolin-5(6H)-one]
